According to patent publication US20230303552A1, “ARYLSULFONYL DERIVATIVES AND THEIR USE AS MUSCARINIC ACETYLCHOLINE RECEPTOR M5 INHIBITORS” (Vanderbilt University, priority 2020, published 2023):

Target: T1, human M5 receptors (hM5) (Homo sapiens, UniProt P08912)
T1 construct: expressed in transfected cells
T1 sequence (P08912 1-532): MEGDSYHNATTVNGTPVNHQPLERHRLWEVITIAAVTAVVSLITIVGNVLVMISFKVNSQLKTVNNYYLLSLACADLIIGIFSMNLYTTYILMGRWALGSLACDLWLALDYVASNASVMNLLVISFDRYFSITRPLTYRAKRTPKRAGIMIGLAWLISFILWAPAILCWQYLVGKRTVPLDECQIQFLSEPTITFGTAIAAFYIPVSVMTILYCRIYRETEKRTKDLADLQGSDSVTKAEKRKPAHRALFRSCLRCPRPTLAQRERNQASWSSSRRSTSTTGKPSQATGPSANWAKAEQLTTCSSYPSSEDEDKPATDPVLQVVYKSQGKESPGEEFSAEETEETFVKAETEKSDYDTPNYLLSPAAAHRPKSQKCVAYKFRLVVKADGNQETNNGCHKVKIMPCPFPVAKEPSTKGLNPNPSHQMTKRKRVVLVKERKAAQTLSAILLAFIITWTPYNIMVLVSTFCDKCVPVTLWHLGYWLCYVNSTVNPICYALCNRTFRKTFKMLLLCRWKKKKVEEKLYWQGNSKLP
Test: Cell-based functional calcium mobilization assay of mAChR M5 activity (inhibition of EC80 acetylcholine response) in CHO cells
Conditions: CHO cells stably expressing hM5; for IC50: calcium flux (Fluo-4), EC80 acetylcholine addition; for EC80 MIN: minimum of EC80 acetylcholine response, normalized to maximum acetylcholine response
Protocol: All functional cell-based assays were performed essentially as previously described (Marlo et al., Mol.Pharm. 2009, 75(3), 577-588; Brady et al., J. Pharm. & Exp. Ther. 2008, 327, 941-953). Initial, single point (10 µM) competitive and non-competitive inhibitor characterization was performed in stable Chinese Hamster Ovary (CHO) cell lines constitutively expressing human M5 receptors. These were plated at 15,000 cells per 20 µL per well in Greiner 384-well black-walled, TC-treated, clear-bottomed plates (Fisher) in Ham’s F12 medium supplemented with 10% FBS and 20 mM HEPES. Cells were incubated overnight at 37° C. under 5% CO2. The following day, medium was exchanged with assay buffer (Hank’s Balanced Salt Solution supplemented with 20 mM HEPES and 2.5 mM Probenecid, pH 7.4) leaving 20 µL of assay buffer in each well. This was followed by the addition of 20 µL of 2.3 µM of Fluo-4 AM (Invitrogen) in assay buffer (final concentration 1.15 µM). The cells were then incubated 50 minutes at 37° C. under 5% CO2. The assay buffer plus dye was then exchanged with fresh assay buffer leaving a volume of 20 µL in each well. Test compounds were diluted into assay buffer to a 2X (20 µM) concentration in 0.2% dimethylsulfoxide (DMSO) in columns 3 - 22 with matching DMSO concentration in columns 1, 2, 23, and […]; compounds were added to the assay for a final concentration of 10 µM and a final DMSO concentration of 0.1%. Acetylcholine (Sigma-Aldrich) was prepared to provide 5X concentrations of EC20, EC80, and ECmax in the triple-addition assay, providing a signal window to view agonism, potentiation, and inhibition of the acetylcholine response as well as a means to normalize to the maximum acetylcholine response.
Either an FDSS (Hamamatsu) or Panoptic (WaveFront Biosciences) kinetic imaging plate reader was used for assay execution and measurement of calcium flux. After establishing baseline fluorescence, test compounds (20 µL) were added to the cells using the reader’s integrated pipettor and allowed to equilibrate for 140 seconds before addition of the EC20 concentration of acetylcholine (10 µL) along with vehicle in selected DMSO-only wells in the outer two columns. The EC80 concentration of acetylcholine (10 µL) was added 125 seconds after the EC20 addition along with ECmax concentration in the wells receiving vehicle in the second addition. The raw fluorescence data from each well was normalized to the corresponding initial fluorescence reading (static ratio). The maximum fluorescence value following each addition was determined and the minimum value within that same timeframe was subtracted for each well then normalized to the average of the ECmax maximum-minimum response, providing a %AChmax value for each addition for each well. The single point values represent mean values determined within the EC80 addition timeframe obtained from at least three independent determinations performed in triplicate or greater (error bars represent +/- SEM) unless otherwise specified.
Further characterization of competitive and non-competitive inhibitor compounds (compound potency and mAChR subtype-selectivity) was performed on the FDSS with calcium mobilization assays performed as previously described (Marlo et al., 2009; Brady et al., 2008) and in a format similar to that described above using the same reagents. CHO cells stably expressing hM1, hM2/Gqi5, hM3, hM4/Gqi5, hM5, rM1, rM2/Gqi5, rM3, rM4/Gqi5, or rMs were plated in the manner described above. A ten-point concentration range of test compound was serial diluted in assay buffer to 2X final concentration and acetylcholine was diluted in assay buffer to 5X of the EC20 and EC80 concentrations, determined empirically and 5X maximal (2 mM final concentration) stock concentrations. FDSS protocols were carried out as described above; the static ratio was calculated and the minimum response subtracted from the maximum response within the timeframe of each addition. […]

Row | Structure (SMILES) | IC50 | EC80 MIN
1 | CC1COc2ccc(S(=O)(=O)N3CCC(C(=O)Nc4ccc5scnc5c4)CC3)cc21 (racemic) [Compound 131, (rac)-N-(benzo[d]thiazol-5-yl)-1-((3-methyl-2,3-dihydrobenzofuran-5-yl)sulfonyl)piperidine-4-carboxamide] | 109 nM | 3%
2 | C[C@@H]1C[C@@H](C(=O)Nc2ccc3scnc3c2)CCN1S(=O)(=O)c1ccc2ncsc2c1 (racemic) [Compound 134, trans-(rac)-N-(benzo[d]thiazol-5-yl)-1-(benzo[d]thiazol-6-ylsulfonyl)-2-methylpiperidine-4-carboxamide] | 580 nM | 3%
3 | Cc1cc2c(cc1S(=O)(=O)N1CCC(C(=O)Nc3ccc4scnc4c3)CC1)C(C)CO2 (racemic) [Compound 145, (rac)-N-(benzo[d]thiazol-5-yl)-1-((3,6-dimethyl-2,3-dihydrobenzofuran-5-yl)sulfonyl)piperidine-a-carboxamide] | 1370 nM | 3%
4 | Cn1ncc(S(=O)(=O)N2CC[C@H](C(=O)Nc3ccc4scnc4c3)[C@@H](F)C2)c1Cl (racemic) [Compound 159, trans-(rac)-N-(benzo[d]thiazol-5-yl)-1-((5-chloro-1-methyl-1H-pyrazol-4-yl)sulfonyl)-3-fluoropiperidine-4-carboxamide] | 10 nM | 2%
5 | Cc1ncc(S(=O)(=O)N2CC[C@H](C(=O)Nc3ccc4scnc4c3)[C@@H](F)C2)s1 (racemic) [Compound 160, trans-(rac)-N-(benzo[d]thiazol-5-yl)-3-fluoro-1-((2-methylthiazol-5-yl)sulfonyl)piperidine-4-carboxamide] | 13 nM | 2%
6 | O=C(Nc1ccc2scnc2c1)C1CCN(S(=O)(=O)c2ccc(Cl)s2)CC1 [Compound 1, N-(benzo[d]thiazol-5-yl)-1-((5-chlorothiophen-2-yl)sulfonyl)piperidine-4-carboxamide] | 2740 nM | 3%
7 | O=C(Nc1ccc2scnc2c1)C1CCN(S(=O)(=O)c2ccc3c(c2)CCO3)CC1 [Compound 2, N-(benzo[d]thiazol-5-yl)-1-((2,3-dihydrobenzofuran-5-yl)sulfonyl)piperidine-4-carboxamide] | 72 nM | 2%
8 | O=C(Nc1ccc2scnc2c1)C1CCN(S(=O)(=O)c2ccc3ncsc3c2)CC1 [Compound 3, N-(benzo[d]thiazol-5-yl)-1-(benzo[d]thiazol-6-ylsulfonyl)piperidine-4-carboxamide] | 670 nM | 5%
9 | O=C(Nc1ccc2scnc2c1)C1CCN(S(=O)(=O)c2ccc3ncccc3c2)CC1 [Compound 4, N-(benzo[d]thiazol-5-yl)-1-(quinolin-6-ylsulfonyl)piperidine-4-carboxamide] | 959 nM | 2%
10 | Cc1nn(C)cc1S(=O)(=O)N1CCC(C(=O)Nc2ccc3scnc3c2)CC1 [Compound 5, N-(benzo[d]thiazol-5-yl)-1-((1,3-dimethyl-1H-pyrazol-4-yl)sulfonyl)piperidine-4-carboxamide] | 304 nM | 2%
11 | O=C(Nc1ccc2scnc2c1)C1CCN(S(=O)(=O)c2ccc(Cl)nc2)CC1 [Compound 7, N-(benzo[d]thiazol-5-yl)-1-((6-chloropyridin-3-yl)sulfonyl)piperidine-4-carboxamide] | 184 nM | 4%
12 | O=C(Nc1ccc2scnc2c1)C1CCN(S(=O)(=O)c2ccsc2)CC1 [Compound 8, N-(benzo[d]thiazol-5-yl)-1-(thiophen-3-ylsulfonyl)piperidine-4-carboxamide] | > 10000 nM | 23%
13 | N#Cc1cc(S(=O)(=O)N2CCC(C(=O)Nc3ccc4scnc4c3)CC2)ccc1Cl [Compound 9, N-(benzo[d]thiazol-5-yl)-1-((4-chloro-3-cyanophenyl)sulfonyl)piperidine-4-carboxamide] | > 10000 nM | 38%
14 | COc1ccc(S(=O)(=O)N2CCC(C(=O)Nc3ccc4scnc4c3)CC2)cn1 [Compound 10, N-(benzo[d]thiazol-5-yl)-1-((6-methoxypyridin-3-yl)sulfonyl)piperidine-4-carboxamide] | 1320 nM | 3%
15 | O=C(Nc1ccc2scnc2c1)C1CCN(S(=O)(=O)c2ccc(C(F)(F)F)nc2)CC1 [Compound 11, N-(benzo[d]thiazol-5-yl)-1-((6-(trifluoromethyl)pyridin-3-yl)sulfonyl)piperidine-4-carboxamide] | > 10000 nM | 52%
16 | O=C(Nc1ccc2[nH]cnc2c1)C1CCN(S(=O)(=O)c2ccc3c(c2)CCO3)CC1 [Compound 13, N-(1H-benzo[d]imidazol-5-yl)-1-((2,3-dihydrobenzofuran-5-yl)sulfonyl)piperidine-4-carboxamide] | > 10000 nM | 22%
17 | O=C(Nc1ccc2scnc2c1)C1CN(S(=O)(=O)c2ccc3c(c2)CCO3)C1 [Compound 16, N-(benzo[d]thiazol-5-yl)-1-((2,3-dihydrobenzofuran-5-yl)sulfonyl)azetidine-3-carboxamide] | 1780 nM | 2%
18 | Cc1noc(C)c1S(=O)(=O)N1CCC(C(=O)Nc2ccc3scnc3c2)CC1 [Compound 17, N-(benzo[d]thiazol-5-yl)-1-((3.5-dimcthylisoxazol-4-yl)sulfonyl)piperidine-4-carboxamide] | 766 nM | 3%
19 | O=C(Nc1ccc2scnc2c1)C1CCN(S(=O)(=O)c2cccnc2)CC1 [Compound 18, N-(benzo[d]thiazol-5-yl)-1-(pyridin-3-ylsulfonyl)piperidine-4-carboxamide] | 56 nM | 2%
20 | Cc1nc(C(F)(F)F)c(S(=O)(=O)N2CCC(C(=O)Nc3ccc4scnc4c3)CC2)s1 [Compound 19, N-(benzo[d]thiazol-5-yl)-1-((2-methyl-4-(trifluoromcthyl)thiazol-5-yl)sulfonyl)piperidine-4-carboxamide] | 3130 nM | 19%
21 | Cn1cnc(S(=O)(=O)N2CCC(C(=O)Nc3ccc4scnc4c3)CC2)c1 [Compound 20, N-(benzo[d]thiazol-5-yl)-1-((1-methyl-1H-imidazol-4-yl)sulfonyl)piperidine-4-carboxamide] | > 10000 nM | 49%
22 | O=C(Nc1ccc2scnc2c1)C1CCN(S(=O)(=O)c2cccc3nsnc23)CC1 [Compound 21, 1-(benzo[c][1,2,5]thiadiazol-4-ylsulfonyl)-N-(benzo[d]thiazol-5-yl)piperidine-4-carboxamide] | 434 nM | 3%
23 | CC1(C(=O)Nc2ccc3scnc3c2)CN(S(=O)(=O)c2ccc3c(c2)CCO3)C1 [Compound 22, N-(benzo[d]thiazol-5-yl)-1-((2,3-dihydrobenzofuran-5-yl)sulfonyl)-3-methylazetidine-3-carboxamide] | > 10000 nM | 43%
